# Source: patent US20090131481A1, “Transcription Factor Modulating Compounds and Methods of Use Thereof” (Paratek Pharmaceuticals, Inc., published 2009)
# Where two headings read alike, the source gives them in different places.
# Key:
# [1] = molecular target: T1, ExsA (Pseudomonas aeruginosa, UniProt P26993); test: Chemiluminescence-based ExsA-DNA binding assay; design: species or system P. aeruginosa; conditions: Table 7, cell-free system; read-out: ExsA EC50
# T1 construct: made in house
# T1 sequence (P26993 1-278): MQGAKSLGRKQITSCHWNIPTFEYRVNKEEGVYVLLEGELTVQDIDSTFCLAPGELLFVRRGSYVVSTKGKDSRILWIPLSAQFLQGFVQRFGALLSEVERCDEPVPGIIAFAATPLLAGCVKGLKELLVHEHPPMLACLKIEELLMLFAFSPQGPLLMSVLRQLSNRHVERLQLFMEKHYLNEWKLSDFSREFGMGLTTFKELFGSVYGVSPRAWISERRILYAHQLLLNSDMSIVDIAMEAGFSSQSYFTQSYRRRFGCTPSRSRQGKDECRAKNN
# [2] = test system: Y. pseudotuberculosis; test: microbe, parasite or virus in culture; conditions: Yersinia pseudotuberculosis, J774, read-out: % Cytotoxicity
# [3] = molecular target: LcrF (VirF) (Yersinia pestis, UniProt P28808); test: biochemical; type: binding, Y. pseudotuberculosis
# Sequence of LcrF (VirF) (P28808 whole entry, looked up): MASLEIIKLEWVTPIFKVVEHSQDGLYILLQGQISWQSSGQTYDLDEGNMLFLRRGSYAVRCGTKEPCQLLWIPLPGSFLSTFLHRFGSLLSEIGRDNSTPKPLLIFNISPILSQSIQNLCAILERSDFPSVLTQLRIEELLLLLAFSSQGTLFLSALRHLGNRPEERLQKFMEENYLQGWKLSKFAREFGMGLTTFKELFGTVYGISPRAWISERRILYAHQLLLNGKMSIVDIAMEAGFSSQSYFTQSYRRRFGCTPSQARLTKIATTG
# [4] = test system: P. aeruginosa; test: P. aeruginosa cytotoxicity whole cell assay (J774 cells, LDH release); conditions: relative to vehicle treated cells infected with wild type P. aeruginosa
# [5] = EC50 for inhibition of LcrF(VirF)-DNA binding
# [6] = read-out: EC50 for inhibition of LcrF(VirF)-DNA binding
Compound,EC50 [1] [µM],activity at 50 µg/mL [2] [%],"EC50 [3, 5] [µM]","EC50 [3, 6] [µM]",Cytotoxicity at 50 μg/mL Pseudomonas [4]
O=C(Nc1ccc(-c2nc3ccc([N+](=O)[O-])cc3n2O)cc1)c1ccc(-n2cccn2)cc1 [AB],< 10,–,–,–,–
CC(=O)Nc1ccc(C(=O)Nc2ccc(-c3nc4ccc([N+](=O)[O-])cc4n3O)cc2)cc1 [AC],< 10,< 75,10 to 25,–,–
O=C(Nc1ccc(-c2nc3ccc([N+](=O)[O-])cc3n2O)cc1)c1ccc(N2CCOCC2)cc1 [AD],10 to 25,–,–,–,–
O=C(Nc1ccc(-c2nc3ccc([N+](=O)[O-])cc3n2O)cc1)c1ccc(O)cc1 [AE],10 to 25,–,–,–,–
NS(=O)(=O)c1ccc(C(=O)Nc2ccc(-c3nc4ccc([N+](=O)[O-])cc4n3O)cc2)cc1 [AF],10 to 25,–,–,–,–
CS(=O)(=O)c1ccc(C(=O)Nc2ccc(-c3nc4ccc([N+](=O)[O-])cc4n3O)cc2)cc1 [AG],> 25,–,–,–,–
O=C(O)c1ccc(C(=O)Nc2ccc(-c3nc4ccc([N+](=O)[O-])cc4n3O)cc2)cc1 [AI],> 25,–,–,–,–
O=C(/C=C/c1ccc(O)cc1)Nc1ccc(-c2nc3ccc([N+](=O)[O-])cc3n2O)cc1 [AN],10 to 25,–,–,–,–
CC(C)c1ccc(/C=C/C(=O)Nc2ccc(-c3nc4ccc([N+](=O)[O-])cc4n3O)cc2)cc1 [CS],> 25,< 75,> 25,–,–
C/C(=C\c1ccccc1)C(=O)Nc1ccc(-c2nc3ccc([N+](=O)[O-])cc3n2O)cc1 [CT],> 25,< 75,> 25,–,–
O=C(Nc1ccc2nc(-c3ccc([N+](=O)[O-])cc3)n(O)c2c1)c1ccc(F)cc1 [CW],–,< 75,–,> 25,–
NC(=NO)c1ccc2nc(-c3ccc(NC(=O)c4ccc(F)cc4)cc3)n(O)c2c1 [CX],> 25,< 75,> 25,–,–
CC(=NO)c1ccc2nc(-c3ccc(NC(=O)c4ccc(N(C)C)cc4)cc3)n(O)c2c1 [DF],> 25,< 75,> 25,–,–
"O=C(O)COn1c(-c2ccc(NC(=O)c3ccc(F)cc3)cc2)nc2ccc([N+](=O)[O-])cc21 [DG, {2-[4-(4-Fluoro-benzoylamino)-phenyl]-6-nitro-benzoimidazol-1-yloxy}-acetic acid]",–,< 75,> 25,–,–
CCc1cc(-c2nc3ccc([N+](=O)[O-])cc3n2O)ccc1NC(=O)c1ccc(F)cc1 [DK],> 25,< 75,10 to 25,–,–
"NC(=O)c1ccc2nc(-c3ccc(NC(=O)c4ccc(F)cc4)cc3)n(O)c2c1 [DO, 2-[4-(4-Fluoro-benzoylamino)-phenyl]-3-hdroxy-3H-benzoimidazole-5-carboxylic acid amide]",> 25,< 75,–,> 25,–
O=C(Nc1ccc(-c2nc3ccc([N+](=O)[O-])cc3n2O)nc1)c1ccc(F)cc1 [DQ],> 25,< 75,> 25,–,–
O=C(Nc1ccc(-c2nc3ccc([N+](=O)[O-])cc3n2OCP(=O)(O)O)cc1)c1ccc(F)cc1 [DV],> 25,< 75,–,> 25,–
"O=C(Nc1ccc(-c2nc3ccc([N+](=O)[O-])cc3n2O)c(OCP(=O)(O)O)c1)c1ccc(F)cc1 [EC, [5-(4-Fluoro-benzoylamino)-2-(1-hydroxy-6-nitro-1H-benzoimidazol-2-yl)-phenoxymethyl]-phosphonic acid]",> 25,< 75,–,> 25,–
CCOP(=O)(COn1c(-c2ccc(NC(=O)c3ccc(F)cc3)cc2)nc2ccc([N+](=O)[O-])cc21)OCC [EG],> 25,< 75,–,> 25,–
O=C(Nc1ccc(-c2nc3ccncc3n2O)cc1)c1ccc(F)cc1 [EJ],> 25,< 75,–,> 25,–
O=C(/C=C/c1ccc(F)cc1)Nc1ccc(-c2nc3ccncc3n2O)cc1 [EK],> 25,< 75,–,> 25,–
Cc1cc(-c2nc3ccc([N+](=O)[O-])cc3n2O)ccc1NC(=O)/C=C/c1ccc(F)cc1 [EN],> 25,< 75,10 to 25,–,–
O=C(Nc1ccc(-c2nc3ccc([N+](=O)[O-])cc3n2O)cc1)c1ccc2c(c1)CCCC2=O [EP],> 25,< 75,> 25,–,–
CC(=O)c1ccc(C(=O)Nc2ccc(-c3nc4ccc([N+](=O)[O-])cc4n3O)cc2C)cc1 [ER],–,< 75,–,> 25,–
CN(C)CCN(C)c1cc2nc(-c3ccc(NC(=O)/C=C/c4ccc(F)cc4)cc3)n(O)c2cc1[N+](=O)[O-] [FQ],–,–,–,–,"** (reduced P. aeruginosa cytotoxicity below 75% of untreated, wild type levels at 50 mg/mL)"

Compound,EC50 [1] [µM],activity at 50 µg/mL [2] [%],"EC50 [3, 5] [µM]","EC50 [3, 6] [µM]",Cytotoxicity at 50 μg/mL Pseudomonas [4]
CN1CCN(CCOc2cc3nc(-c4ccc(NC(=O)/C=C/c5ccc(F)cc5)cc4)n(O)c3cc2[N+](=O)[O-])CC1 [FR],–,–,–,–,"* (reduced P. aeruginosa cytotoxicity to 99-75% of untreated, wild type levels at 50 mg/mL)"
CN(C)CCOc1cc2nc(-c3ccc(NC(=O)/C=C/c4ccc(F)cc4)cc3)n(O)c2cc1[N+](=O)[O-] [FS],> 25,–,–,–,"* (reduced P. aeruginosa cytotoxicity to 99-75% of untreated, wild type levels at 50 mg/mL)"
CC(=O)c1ccc(/C=C/C(=O)Nc2ccc(-c3nc4cc(OCCN5CCN(C)CC5)c([N+](=O)[O-])cc4n3O)cc2)cc1 [FU],–,–,–,–,"** (reduced P. aeruginosa cytotoxicity below 75% of untreated, wild type levels at 50 mg/mL)"
"CC(=O)c1ccc(C(=O)Nc2ccc(-c3nc4ccc(-n5ccnc5)cc4n3O)cc2)cc1 [FZ, 4-Acetyl-N-[4-(1-hdroxy-6-imidazol-1-yl-1H-benzoimidazol-2-yl)-phenyl]-benzamide]",> 25,–,–,–,"* (reduced P. aeruginosa cytotoxicity to 99-75% of untreated, wild type levels at 50 mg/mL)"
CC(=O)c1ccc(/C=C/C(=O)Nc2ccc(-c3nc4ccc(Br)cc4n3O)cc2)cc1 [GD],< 10,–,–,–,"* (reduced P. aeruginosa cytotoxicity to 99-75% of untreated, wild type levels at 50 mg/mL)"
CC(=O)c1ccc(/C=C/C(=O)Nc2ccc(-c3nc4ccc(C(F)(F)F)cc4n3O)cc2)cc1 [GE],10 to 25,–,–,–,"* (reduced P. aeruginosa cytotoxicity to 99-75% of untreated, wild type levels at 50 mg/mL)"
CC(=O)c1ccc(/C=C/C(=O)Nc2ccc(-c3nc4ccc(S(N)(=O)=O)cc4n3O)cc2)cc1 [GF],10 to 25,–,–,–,"* (reduced P. aeruginosa cytotoxicity to 99-75% of untreated, wild type levels at 50 mg/mL)"
CC(=O)c1ccc(/C=C/C(=O)Nc2ccc(-c3nc4ccccc4n3O)cc2)cc1 [GH],10 to 25,–,–,–,"* (reduced P. aeruginosa cytotoxicity to 99-75% of untreated, wild type levels at 50 mg/mL)"
CC(=O)c1ccc(/C=C/C(=O)Nc2ccc(-c3nc4ccc(C(C)=O)cc4n3O)cc2)cc1 [GI],> 25,–,–,–,"* (reduced P. aeruginosa cytotoxicity to 99-75% of untreated, wild type levels at 50 mg/mL)"
CC(=O)c1ccc(/C=C/C(=O)Nc2ccc(-c3nc4ccc(S(C)(=O)=O)cc4n3O)cc2)cc1 [GK],> 25,–,–,–,"* (reduced P. aeruginosa cytotoxicity to 99-75% of untreated, wild type levels at 50 mg/mL)"
O=C(Cc1ccc(F)cc1)Nc1ccc(-c2nc3ccc([N+](=O)[O-])cc3n2O)cc1 [G],> 25,–,> 25,–,–
O=C(/C=C/c1ccccc1)Nc1ccc(-c2nc3ccc([N+](=O)O)cc3n2O)cc1 [J],< 10,< 75,< 10,–,–
O=C(Nc1ccc(-c2nc3ccc([N+](=O)[O-])cc3n2O)cc1)c1ccc(-n2cncn2)cc1 [K],< 10,< 75,10 to 25,–,–
O=C(CCc1ccc(F)cc1)Nc1ccc(-c2nc3ccc([N+](=O)[O-])cc3n2O)cc1 [L],> 25,–,> 25,–,–
O=C(Nc1ccc(-c2nc3ccc([N+](=O)[O-])cc3n2O)cc1)c1cccc(F)c1 [N],–,–,> 25,–,–
Cc1cccc(C(=O)Nc2ccc(-c3nc4ccc([N+](=O)[O-])cc4n3O)cc2)c1 [O],–,–,> 25,–,–
Cc1ccccc1C(=O)Nc1ccc(-c2nc3ccc([N+](=O)[O-])cc3n2O)cc1 [P],–,–,> 25,–,–
O=C(Nc1ccc(-c2nc3ccc([N+](=O)[O-])cc3n2O)cc1)c1ccccc1F [Q],–,–,> 25,–,–
O=[N+]([O-])c1ccc2nc(-c3ccc(C#Cc4ccc(F)cc4)cc3)n(O)c2c1 [R],> 25,–,> 25,–,–
COc1ccc(/C=C/C(=O)Nc2ccc(-c3nc4ccc([N+](=O)[O-])cc4n3O)cc2)cc1 [T],< 10,< 75,< 10,–,–
COc1ccccc1/C=C/C(=O)Nc1ccc(-c2nc3ccc([N+](=O)[O-])cc3n2O)cc1 [U],< 10,–,10 to 25,–,–
O=C(/C=C/c1ccc(F)c(F)c1)Nc1ccc(-c2nc3ccc([N+](=O)[O-])cc3n2O)cc1 [W],10 to 25,< 75,10 to 25,–,–
N#Cc1ccc(/C=C/C(=O)Nc2ccc(-c3nc4ccc([N+](=O)[O-])cc4n3O)cc2)cc1 [X],< 10,< 75,10 to 25,–,–
O=C(/C=C/c1ccc(C(F)(F)F)cc1)Nc1ccc(-c2nc3ccc([N+](=O)[O-])cc3n2O)cc1 [Y],10 to 25,–,< 10,–,–
O=C(NCc1ccc(-c2nc3ccc([N+](=O)[O-])cc3n2O)cc1)c1ccc(F)cc1 [Z],> 25,–,> 25,–,–
